# Laboratory results from PMC8882611, “Corylus avellana: A Source of Diarylheptanoids With α-Glucosidase Inhibitory Activity Evaluated by in vitro and in silico Studies” (Frontiers in Plant Science, 2022).
# Tests used:
# [1] = target: α-glucosidase enzyme (from Saccharomyces cerevisiae) (Saccharomyces cerevisiae, UniProt P53341); test: biochemical; settings: substrate 4-nitrophenyl α-D-glucopyranoside, pH 7.0, 37°C; samples 200, 300, 400 μM; mean ± SD of three experiments; read-out: α-Glucosidase inhibitory activity IC50 ± SD
# Chain of α-glucosidase enzyme (from Saccharomyces cerevisiae) (P53341 whole entry): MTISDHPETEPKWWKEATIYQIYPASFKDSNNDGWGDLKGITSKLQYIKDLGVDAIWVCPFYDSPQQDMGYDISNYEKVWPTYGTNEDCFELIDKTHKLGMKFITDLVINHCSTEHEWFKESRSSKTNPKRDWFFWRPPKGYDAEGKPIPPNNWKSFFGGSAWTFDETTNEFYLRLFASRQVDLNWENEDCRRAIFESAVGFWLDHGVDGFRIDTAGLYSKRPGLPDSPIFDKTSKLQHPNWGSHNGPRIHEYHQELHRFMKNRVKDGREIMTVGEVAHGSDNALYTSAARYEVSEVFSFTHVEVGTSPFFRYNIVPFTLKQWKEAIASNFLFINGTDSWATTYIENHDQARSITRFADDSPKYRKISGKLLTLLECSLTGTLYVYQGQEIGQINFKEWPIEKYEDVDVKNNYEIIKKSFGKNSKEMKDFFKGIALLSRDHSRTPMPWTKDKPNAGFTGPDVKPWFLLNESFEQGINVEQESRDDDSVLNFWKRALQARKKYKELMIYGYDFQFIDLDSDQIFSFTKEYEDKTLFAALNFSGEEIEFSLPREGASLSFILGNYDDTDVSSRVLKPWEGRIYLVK
# Experimental: α-Glucosidase inhibitory activity was evaluated as previously reported ([Kilinc et al., 2020]). Briefly, 0.1 M phosphate buffer at pH 7.0 (150 μL) was added to each well; successively 10 μL of samples, dissolved in MeOH at different concentrations (200, 300, and 400 μM) were added; at this point, the reaction was initiated by the addition of 15 μL of the α-glucosidase enzyme (from Saccharomyces cerevisiae) (2 U/mL) in each well, and the plate was incubated for 5 min at 37°C; after 5 min 75 μL of the substrate (2.5 mM) 4-nitrophenyl α-D-glucopyranoside were added, and successively the plate was incubated for 10 min at 37°C. The absorbance was measured at 405 nm before (T0′) and after the incubation with the enzyme (T10′). […] Negative control absorbance (phosphate buffer in place of the sample) was also recorded. Inhibition of the enzyme was calculated, and the results were expressed as IC50 values. All experiments were carried out in triplicate. IC50 values were calculated through non-linear regression using Graphpad Prism 5 Software and expressed as means ± SD (standard deviation). They were considered statistically significant with values of p < 0.05.
# [2] = system: H2O2– and H2O2/Fe2+-induced lipid peroxidation; parameters: method as in Masullo et al., 2015b; settings: 10 μM; TBARS assay; ref Masullo et al., 2015b; cited from earlier work
# plasma proteins = system: plasma proteins; parameters: method as in Cerulli et al., 2021; Masullo et al., 2021; settings: 10 μM, ref Cerulli et al., 2021, Masullo et al.; cited from earlier work
# [3] = system: Bacillus cereus, Staphylococcus aureus, Escherichia coli and Pseudomonas aeruginosa; parameters: method as in Cerulli et al., 2017; settings: 40 μg/disk; tetracycline as positive control; ref Cerulli et al., 2017; cited from earlier work
Structure (SMILES),IC50 [1],further results
"COc1c(O)cc2cc1Oc1ccc(cc1)CC[C@H](O)/C=C/C=C\2 [Giffonin H (8), Giffonin H]",109 ± 2.9 µM,reduction of H2O2-induced lipid peroxidation [2]: more than 60%; reduction of H2O2/Fe2+-induced lipid peroxidation [2]: > 50%
"COc1c2cc(c(OC)c1O)Oc1ccc(cc1)CC[C@H](O)/C=C/C=C\2 [Giffonin G (7), Giffonin G]",108 ± 9.2 µM,reduction of oxidation of thiol groups and carbonylation in plasma proteins (plasma proteins): most active compounds
"O=C1/C=C/C=C/c2ccc(O)c(c2)Oc2ccc(cc2)CC1 [Giffonin R (19), Giffonin R]",128 ± 6.1 µM,–
"O=C1Cc2ccc(O)c(c2)-c2cc(ccc2O)C[C@@H](O)[C@@H](O)[C@@H](O)[C@H]1O [Giffonin U (23), Giffonin U]",175 ± 9.8 µM,zones of inhibition [3]: completely comparable to those obtained with tetracycline
"O=C1/C=C/CCc2ccc(O)c(c2)Oc2ccc(cc2)CC1 [Giffonin Q (18), Giffonin Q]",127 ± 5.9 µM,–
"O=C1C=CCCc2ccc(OC3OC(CO)C(O)C(O)C3O)c(c2)-c2cc(ccc2OC2OCC(O)C(O)C2O)CC1 (stereo not drawn) [Giffonin I (9), Giffonin I]",105 ± 4.9 µM,–
"O=C1CCc2ccc(OC3OC(CO)C(O)C(O)C3O)c(c2)-c2cc(ccc2O)CC(O)C(O)C1O (stereo not drawn) [Giffonin T (22), Giffonin T]",131 ± 6.1 µM,–
"O=C1CCc2ccc(O)c(c2)-c2cc(ccc2O)C[C@H](O)C[C@@H]1O [Giffonin M (13), Giffonin M]",114 ± 9.7 µM,–
"O=C1/C=C/CCc2ccc(O)c(c2)-c2cc(ccc2O)CC1 [Alnusone (21), Alnusone]",154 ± 8.3 µM,–
"O=C1CCc2ccc(O)c(c2)-c2cc(ccc2O)CC[C@@H](O)[C@H]1O [Giffonin V (25), Giffonin V]",123 ± 4.4 µM,–
"COc1c2cc(c(OC)c1O)Oc1ccc(cc1)CCC(=O)CC/C=C\2 [Giffonin D (4), Giffonin D]",108 ± 6.1 µM,reduction of H2O2-induced lipid peroxidation [2]: more than 60%; reduction of H2O2/Fe2+-induced lipid peroxidation [2]: > 50%
"O=C(CCc1ccc(O)c(O)c1)C[C@H](CCc1ccc(O)c(O)c1)O[C@@H]1OC[C@@H](O)[C@H](O)[C@H]1O [Oregonin (17), Oregonin]",144 ± 7.2 µM,–
"COc1cc2cc(c1O)Oc1ccc(cc1)CCC(=O)/C=C/C=C/2 [Giffonin S (20), Giffonin S]",126 ± 8.9 µM,–
"Oc1ccc2cc1-c1cc(ccc1O)C[C@H](O)[C@H](O)C(O)[C@@H](O)[C@H](O)C2 (stereo partly drawn) [Giffonin P (16), Giffonin P]",55.3 ± 7.7 µM,–
"O=C1CCc2ccc(O)c(c2)-c2cc(ccc2O)C[C@H](O)[C@H](O)[C@H]1O [Carpinontriol B (24), Carpinontriol B]",107 ± 6.1 µM,zones of inhibition [3]: completely comparable to those obtained with tetracycline
"COc1c2cc(c(OC)c1O)Oc1ccc(cc1)CCC(=O)C[C@H](O)/C=C\2 [Giffonin F (6), Giffonin F]",146 ± 4.3 µM,–
"COc1c2cc(c(OC)c1O)Oc1ccc(cc1)CCCC[C@H](O)/C=C\2 [Giffonin E (5), Giffonin E]",167 ± 4.6 µM,–
"COc1c2cc(c(OC)c1O)Oc1ccc(cc1)[C@@H](O)C[C@@H](O)/C=C/C=C\2 [Giffonin K (11), Giffonin K]",70 ± 3.1 µM,reduction of oxidation of thiol groups and carbonylation in plasma proteins (plasma proteins): most active compounds
"COc1c2cc(c(OC)c1O)Oc1ccc(cc1)CCC(=O)CC/C=C/2 [Giffonin A (1), Giffonin A]",184 ± 6.9 µM,–
"O=C1C[C@@H](O)Cc2ccc(O)c(c2)-c2cc(ccc2O)C[C@H](O)[C@H]1O [Giffonin O (15), Giffonin O]",124 ± 11.1 µM,–
"COc1c2cc(c(OC)c1O)Oc1ccc(cc1)[C@@H](O)CC(=O)CC/C=C/2 [Giffonin B (2), Giffonin B]",164 ± 5.2 µM,–
"COc1c2cc(c(OC)c1O)Oc1ccc(cc1)[C@@H](O)C[C@@H](O)CC/C=C\2 [Giffonin J (10), Giffonin J]",56.6 ± 9.6 µM,–
"Oc1ccc2cc1-c1cc(ccc1O)C[C@H](O)[C@@H](O)[C@H](O)C[C@@H](O)C2 [Giffonin L (12), Giffonin L]",172 ± 8.9 µM,–
"O=C1CCc2ccc(O)c(c2)-c2cc(ccc2O)CC(OC2OC(CO)C(O)C(O)C2O)CC1O (stereo not drawn) [Giffonin N (14), Giffonin N]",128 ± 11.3 µM,–
"COc1c2cc(c(OC)c1O)Oc1ccc(cc1)CC[C@H](O)CC/C=C\2 [Giffonin C (3), Giffonin C]",105 ± 6.9 µM,–
